Assay results from US20260356826A1, “SALTS OF AMINO QUINAZOLINE DERIVATIVES” (CHIESI FARMACEUTICI S.P.A., priority 2023, published 2026).
Entries after “also recorded” stand apart in the source; their conditions may differ. Counter-ions that a name gives are not always drawn.

Columns and labels:
Assay type in all cases: physicochemical
[1] = Two-sector dissolution study (FaSSGF then FaSSIF), parachute effect; conditions: for Estimated supersaturation duration (parachute effect): second experiment, pH adjusted to 6.5 after FaSSIF addition; for Time of precipitation: protocol of the second experiment
Protocol: The dissolution behaviour of mesylate salt Form 2 of compound A was studied in a two-sector model in comparison with free base Form A to evaluate a possible “spring-parachute effect”.
The parachute effect is observable in two-sector dissolution studies. A test compound is incubated with FaSSGF and its concentration is monitored over time. FaSSIF is then added to the solution whilst continuing the monitoring. The period of time in which the test compound remains in solution without or before precipitating refers to the supersaturation time and represents the parachute effect.
The experiment was conducted using DISS Profiler 6 Channel Pion. The free base Form A and mesylate salt Form 2 of compound A were each incubated in 8 ml of FaSSGF (pH 1.6) for 20 minutes at the concentration of 350 mg/250 ml. 16 ml of FaSSIF concentrated 1.5× (pH 6.5) was added with an incubation time of 180 minutes. The resulting target pH should be approximately 5-6. The experiment was conducted at 37 °C. The entire dissolution profile was monitored until the end of the experiment to evaluate a possible parachute effect, its duration and to evaluate the maximum solubility reached after the addition of FaSSIF.
A second experiment was conducted, with an additional step of adjusting the pH to 6.5 after FaSSIF addition. Both free base Form A and mesylate salt Form 2 of compound A were tested.
A third experiment was conducted on esylate salt Form 1 of compound A, using the same protocol of the second experiment, with free base Form A and mesylate salt Form 2 of compound A as controls. The experiment was aimed at evaluating comparatively a possible parachute effect of the esylate salt and its duration. Precipitation of the free base was observed after roughly 20 minutes, while precipitation of the esylate salt and mesylate salt were observed after 30 and 40 minutes respectively.

[2] = Dynamic vapour sorption (DVS), hygroscopicity
Protocol: Moisture sorption/desorption data were collected on a TA Instruments Vapor Sorption Analyzer Q5000SA.
First step: sorption data was collected in the range 40% to 90% relative humidity (RH).
Second Step: desorption, sorption and desorption data were collected over a range of 0% to 90% RH at 10% RH intervals under a nitrogen purge. Samples were not dried prior to analysis. Equilibrium criteria used for analysis were less than 0.100% weight change in 20 minutes, with a maximum equilibration time of 1 hour if the weight criterion was not met. Data were not corrected for the initial moisture content of the samples. NaBr was used as humidity verification.
Moisture sorption/desorption data were also collected on a ProUmid SnS 23 equipped with a 23 autosampler following Method 1.
In the first step sorption data was collected in the range 0% to 90% RH. Samples were not dried prior to analysis.
In the second Step desorption, sorption and desorption data were collected over a range of 0% to 90% (RH) at 10% RH intervals under a nitrogen purge. Data were not corrected for the initial moisture content of the samples.

[3] = Formulations in 20% SBE-βCD with citrate buffer: appearance and pH
Protocol: The drug content and homogeneity of the mesylate salt Form 2 and the free base Form A of Compound A in 20% w/v SBE-PCD (Sulfobutyl-ether-β-Cyclodextrin, Captisol; CYDEX Pharmaceutical) were tested at different citrate buffer concentrations such as 0.05 M, 0.1 M, 0.5 M and 1 M, at pH 2.5. To prepare the vehicle, the proper amount of citric acid (Sigma Aldrich; CAS: 77-92-9) was dissolved in water in a volumetric flask, then the pH was increased up to 2.5 using 1M NaOH. Then water was added and brought to the final volume. SBE-PCD was weighed and added in a beaker containing the citrate buffer, then left under stirring until it was dissolved. The required volume of vehicle was added to a known amount of Compound A free base Form A or Mesylate salt Form 2, then sonicated at RT for at least 10 min. The formulation was kept under magnetic stirring for at least 10 min before analysis. The stability in terms of content uniformity and pH were evaluated for up to 8 days. The samples were kept at RT and the nominal concentration was 40 mg/ml.

[4] = Stability of mesylate salt Form 2 on storage (UPLC/UV/MS and XRPD), open and closed conditions; conditions: for Stability: one year; for XRPD pattern change: open and closed; for % area main peak: 0 days; for Stability (overall): regular and stressed storage conditions
Protocol: The samples were dissolved in solvent (water/ACN 40/60) at about 1 mg/mL and diluted at about 0.07 mg/mL.
Approximately 120 mg of mesylate salt Form 2 of Compound A according to Example 2 was stored in a properly labelled open amber glass vial covered with filter paper to simulate open conditions, and in a screw cap glass to simulate closed conditions. The samples were prepared such that a layer of powder was uniformly spread on the bottom of the vial. Approximately 70 mg of powder were weighed in hydroxypropyl methylcellulose (HPMC) capsules size 3 (Capsugel) and for each condition two capsules were stored. The samples were placed at RT in a desiccator with NaBr to reach about 60% RH and in a stability chamber to reach 75% RH at 40 °C. The stability of the mesylate salt Form 2 of Compound A was thereby tested in four distinct conditions: open condition at 25 °C/60% RH, closed condition at 25 °C/60% RH, open condition at 40 °C/75% RH, and closed condition at 40 °C/75% RH. At the time points 0, 14, 28, 56, 84, 168 and 365 days the corresponding samples were removed from the stability chambers. After conditioning at RT, the samples were analyzed by UPLC/UV/MS and XRPD. One or two extra samples were stored for every condition.

[5] = 20% SBE-βCD, citrate buffer 0.05 M, nominal 40 mg/ml
[6] = 20% SBE-βCD, citrate buffer 0.05 M, nominal 40 mg/ml, listed as Free base Form A
[7] = 20% SBE-βCD, citrate buffer 0.1 M, nominal 40 mg/ml
[8] = 20% SBE-βCD, citrate buffer 0.1 M, nominal 40 mg/ml, listed as Free base Form A
[9] = 20% SBE-βCD, citrate buffer 0.5 M, nominal 40 mg/ml
[10] = 20% SBE-βCD, citrate buffer 0.5 M, nominal 40 mg/ml, listed as Free base Form A
[11] = 20% SBE-βCD, citrate buffer 1 M, nominal 40 mg/ml

For COc1cc(-c2ccc(F)cn2)cc2c(N[C@H](C)c3noc(C)n3)ncnc12 [free base Form A, (R)-6-(5-fluoropyridin-2-yl)-8-methoxy-N-(1-(5-methyl-1,2,4-oxadiazol-3-yl)ethyl)quinazolin-4-amine], the “pH after the addition of FaSSIF” value ([1]; first experiment) was 5.8, the “Precipitation start after FaSSIF addition” value ([1]; first experiment, no pH adjustment, 37 °C) was “about 10 minutes” and the “Estimated supersaturation duration (parachute effect)” value [1] was 8 min. For the same compound, the Time of precipitation ([1]; third experiment) was “roughly 20 minutes”, the “Total weight gain (hygroscopicity)” value ([2]; between 2.5% and 90% RH) was “about 0.249 wt %” and the Hygroscopicity ([2]; between 20% and 80% RH) was “No hygroscopicity was noted”. The Total water uptake ([2]; between 20% and 80% RH) was 0.249%, the Appearance [3, 5] was “suspension” and the Appearance [3, 6] was “Fine suspension”. The pH of formulation [3, 6] was 3.1, the Appearance [3, 7] was “suspension” and the Appearance [3, 8] was “Suspension”. For the same compound, the pH of formulation [3, 8] was 3.5, the Appearance [3, 9] was “suspension” and the Appearance [3, 10] was “Thick suspension”. For the same compound, the pH of formulation [3, 10] was 3.2, the Time of gelification ([3]; 20% SBE-βCD, citrate buffer 1 M) was 24 h and the Appearance [3, 11] was “Solution, gel after 24 hours”. For the same compound, the pH of formulation [3, 11] was 3.2 and the Time of gelification ([3]; 20% SBE-βCD, citrate buffer 1 M, listed as Free base Form A) was at most 24 h.
In the case of COc1cc(-c2ccc(F)cn2)cc2c(N[C@H](C)c3noc(C)n3)ncnc12 [mesylate salt Form 2, (R)-6-(5-fluoropyridin-2-yl)-8-methoxy-N-(1-(5-methyl-1,2,4-oxadiazol-3-yl)ethyl)quinazolin-4-amine], the “pH measured at the end of the experiment” value ([1]; first experiment) is reported as 4.5, the “Precipitation after FaSSIF addition” value ([1]; first experiment, no pH adjustment) is reported as “No precipitation was observed” and the “Estimated supersaturation duration (parachute effect)” value [1] is reported as 14 min. The “Duration of the parachute effect compared to free base Form A” value ([1]; third experiment) was “longer duration of the parachute effect”, the Time of precipitation ([1]; third experiment) was 40 min and the Stability ([4]; 25 °C/60% RH closed) was “remained stable throughout the entire test period”. The Stability ([4]; 25 °C/60% RH open) was “remained stable throughout the entire test period”, the XRPD pattern change ([4]; 25 °C/60% RH) was “no significant changes” and the Stability ([4]; 40 °C/75% RH closed) was “remained stable throughout the entire test period”. For the same compound, the Stability ([4]; 40 °C/75% RH open) was “remained stable throughout the entire test period”, the XRPD pattern change ([4]; 40 °C/75% RH) was “no significant changes” and the “% area main peak” value ([4]; ES+, 25 °C/60% RH closed) was 91.6 % area. The “% area main peak” value ([4]; ES+, 25 °C/60% RH open) was 91.6 % area, the “% area main peak” value ([4]; ES+, 40 °C/75% RH closed) was 91.6 % area and the “% area main peak” value ([4]; ES+, 40 °C/75% RH open) was 91.6 % area. For the same compound, the “% area main peak” value ([4]; ES−, 25 °C/60% RH closed) was 100.0 % area, the “% area main peak” value ([4]; ES−, 25 °C/60% RH open) was 100.0 % area and the “% area main peak” value ([4]; ES−, 40 °C/75% RH closed) was 100.0 % area. The “% area main peak” value ([4]; ES−, 40 °C/75% RH open) was 100.0 % area, the “% area main peak” value ([4]; UV, 25 °C/60% RH closed) was 98.4 % area and the “% area main peak” value ([4]; UV, 25 °C/60% RH open) was 98.4 % area. For the same compound, the “% area main peak” value ([4]; UV, 40 °C/75% RH closed) was 98.4 % area, the “% area main peak” value ([4]; UV, 40 °C/75% RH open) was 98.4 % area and the “Stability (overall)” value [4] was “excellent stability for at least one year at RT; also recorded: remains stable in dry form for at least one year at different conditions”. The “Stability (overall)” value ([4]; listed as mesylate salt) was “stable for several months”, the “Total weight gain (hygroscopicity)” value ([2]; between 0% and 90% RH) was “about 1.049 wt %” and the Appearance [3, 5] was “Solution”. The pH of formulation [3, 5] was 3.0, the Appearance [3, 7] was “Solution” and the pH of formulation [3, 7] was 3.0. For the same compound, the Appearance [3, 9] was “Solution”, the pH of formulation [3, 9] was 2.8 and the Appearance [3, 11] was “Solution”. The pH of formulation [3, 11] was 2.8, the “Formulability in solution compared to free base Form A” value ([3]; 20% SBE-βCD, citrate buffers) was “better formulability in solution” and the “Gelification during the test period” value ([3]; all citrate buffer concentrations, up to 8 days, RT) was “No gelification was observed”. The Appearance ([3]; all concentrations of citrate buffer) was “Stable solutions”.
